# US4448729A, “Leucotriene antagonists” (American Home Products Corporation, priority 1982, dated 1984)
# Where a name gives a salt, the structure may show the parent alone. Read-outs that look alike come from different tables or passages of the source.
# Legend:
# [1] = tested on: anaphylactic tissue response; assay: anaphylactic tissue response / leucotriene activity of nitro substituted compounds; assay type: cell-based
# [2] = tested on: sensitized guinea pig trachea; assay: Schultz-Dale reaction, sensitized guinea pig trachea (tracheal spirals), ovalbumin challenge; assay type: cell-based; settings: Cavia porcellus; for inhibition at 10 µM: 10^-5 M; for inhibition at 1 µM: 10^-6 M
# Description: The antiallergy activity of the compounds of this invention was established by the Schultz-Dale reaction employing sensitized guinea pig trachea by the following procedure:
# (§1) Guinea pigs weighing from about 275 to 325 g. are sensitized to ovalbumin. Three to four weeks later, tracheae are removed under CO2 anesthesia. Excess tissue is removed and each trachea is spirally cut and suspended under 6 g. tension in a tissue bath (37° C.) containing modified Tyrode's solution (pH 7.4) oxygenated with a 95 percent O2 -5 percent CO2 gas mixture. The Tyrodes composition (mmol) is: NaCl, 139.2; KCl, 2.7; MgSO4.7H2 O, 0.49; NaHCO3, 11.9; NaH2 PO4.H2 O, 0.4; CaCl2.2H2 O, 1.8 and glucose, 5.5. Tracheae are allowed to equilibrate for 90 minutes before exposure to agonists or drugs.
# A response to histamine is elicited at two bath concentrations (1×10^-6 M and 1×10^-4 M). The lower concentration primes the tissue and is allowed a 5 minute contact period. The higher concentration (10 minute exposure) produces a maximal response for the tissue. In each case, the bath fluid is replaced and the tissue is washed two times with fresh Tyrode solution. Compounds tested are introduced into the bath to produce a 10^-4 M concentration twenty minutes after the second histamine treatment (subsequent testing at 10^-5 and 10^-6 M bath concentrations are employed in dose-response analyses). Ovalbumin (8 μg/ml) is introduced into the bath ten minutes later.
# The contracture curve following antigen challenge is compared with the maximal histamine response at 10 minute time intervals up to 90 minutes and the responses are expressed as percentage inhibition. The area under the curve is calculated for each time period. […] The EC50 is calculated from the area under the curve values at 90 minutes to define the effective concentration of test compound which produces a 50 percent reduction in area under the curve compared to control tissues.
# [3] = target: T1, (Cavia porcellus, UniProt Q2NNR5); assay: Schultz-Dale reaction, guinea pig ileal tissue, inhibition of leucotriene D4; assay type: cell-based; settings: Schultz-Dale reaction employing guinea pig ileal tissue; read-out: pA2 as inhibitor of leucotriene D4 (converted)
# T1 construct: employing guinea pig ileal tissue; from tissue; host or cells: guinea pig ileum
# T1 sequence (Q2NNR5 1-340): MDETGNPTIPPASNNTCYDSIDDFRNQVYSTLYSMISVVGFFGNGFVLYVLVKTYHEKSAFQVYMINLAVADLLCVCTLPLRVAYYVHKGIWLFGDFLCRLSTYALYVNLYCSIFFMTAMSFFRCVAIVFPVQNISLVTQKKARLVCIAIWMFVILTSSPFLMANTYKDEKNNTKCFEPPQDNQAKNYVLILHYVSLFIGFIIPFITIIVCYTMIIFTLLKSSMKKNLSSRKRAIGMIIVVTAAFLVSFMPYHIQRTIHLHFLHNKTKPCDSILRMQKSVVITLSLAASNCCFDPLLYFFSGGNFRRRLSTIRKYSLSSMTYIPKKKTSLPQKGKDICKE
# [4] = tested on: guinea pig lung parenchyma strips; assay: Schultz-Dale reaction, guinea pig lung parenchyma strips, ovalbumin challenge; assay type: cell-based; settings: Cavia porcellus, 1 h, at 60 minutes, read-out: Parenchymal Strips % Inhibition at 60 minutes; for inhibition at 100 µM: 10^-4 M
# Description: as §1
# Following the same basic procedure, guinea pig lung parenchyma strips (25×3×3 mm) dissected along the distal edges of two different lobes are suspended under 1 g. tension in the tissue bath. Equilibration in the Tyrode solution is conducted for 45 minutes with complete solution changes at 15 minute intervals. Maximal contraction induced with histamine (50 μM) primes the tissue. Five minutes later, the bath fluid is exchanged two times and the tissues are allowed to equilibrate 15 minutes longer. The test compound is then introduced into the bath to give a 10^-4 M solution. Five minutes later the ovalbumin challenge (8 μg/ml) is given. The data is collected at ten minute intervals up to 60 minutes and analysed as with the guinea pig trachea technique.
# SRS-A = settings: J.Med.Chem. 20 371 (1977); cited from earlier work
# [5] = 1.5 h, 10^-4 M, at 90 minutes, read-out: Tracheal Spirals % Inhibition at 90 minutes
# [6] = 1.5 h, 50 percent reduction in area under the curve at 90 minutes, read-out: Tracheal Spirals EC50
Compound,"inhibition at 100 µM [2, 5]","inhibition at 10 µM ([2]; 1.5 h, at 90 minutes)","inhibition at 1 µM ([2]; 1.5 h, at 90 minutes)","EC50 [2, 6]",further results
CCCc1c(OCC(O)CNc2cccc([N+](=O)[O-])c2C#N)ccc(C(C)=O)c1O (centres unmarked) [2-[[3-(4-acetyl-3-hydroxy-2-propylphenoxy)-2-hydroxypropyl]amino]-6-nitrobenzonitrile],–,–,–,–,effect on anaphylactic tissue response [1]: potentiator of the anaphylactic tissue response
"CCCc1c(OCC(O)COc2cccc(N)c2C#N)ccc(C(C)=O)c1O (centres unmarked) [Example 1, 2-[3-(4-Acetyl-3-hydroxy-2-propylphenoxy)-2-hydroxypropoxy]-6-aminobenzonitrile]",64.2%,45.7%,20.6%,20 µM,–
"CCCc1c(OCC(O)COc2cccc(NC(=O)C(=O)OCC)c2C#N)ccc(C(C)=O)c1O (centres unmarked) [Example 2, [[3-[3-(4-Acetyl-3-hydroxy-2-propylphenoxy)-2-hydroxypropoxy]-2-cyanophenyl]amino]oxoacetic acid ethyl ester]",73%,63%,18.8%,8.7 µM,Kb [3]: 0.000398 µM; inhibition at 100 µM [4]: 65.5%; inhibition at 10 µM ([4]; 10^-5 M): 2.09%
"CCCc1c(OCC(O)COc2cccc(NC(=O)C(=O)O)c2C#N)ccc(C(C)=O)c1O (centres unmarked) [Example 3, [[3-[-(4-Acetyl-3-hydroxy-2-propylphenoxy)-2-hydroxypropoxy]-2-cyanophenyl]amino]oxoacetic acid sodium salt]",62.1%,21.5%,12.8%,53 µM,inhibition at 100 µM [4]: 22.9%
"CCCc1c(OCC(O)COc2cccc(N)c2)ccc(C(C)=O)c1O (centres unmarked) [Example 4, 1-[2-Hydroxy-3-propyl-4-[2-hydroxy-3-(3-aminophenoxy)propoxy]phenyl]ethanone]",76.2%,9.07%,4.98%,36 µM,–
"CCCc1c(OCC(O)COc2cccc(NC(=O)C(=O)OCC)c2)ccc(C(C)=O)c1O (centres unmarked) [Example 5, [[3-[3-(4-Acetyl-3-hydroxy-2-propylphenoxy)-2-hydroxypropoxy]phenyl]amino]oxoacetic acid ethyl ester]",53%,22.8%,8.57%,97 µM,–
"CCCc1c(OCC(O)CNc2cccc(N)c2C#N)ccc(C(C)=O)c1O (centres unmarked) [Example 6, 2-Amino-6-[[3-(4-acetyl-3-hydroxy-2-propylphenoxy)-2-hydroxypropyl]amino]benzonitrile]",38.8%,–,–,–,–
"CCCc1c(OCC(O)CNc2cccc(NC(=O)C(=O)OCC)c2C#N)ccc(C(C)=O)c1O (centres unmarked) [Example 7, [[[3-[3-(4-acetyl-3-hydroxy-2-propylphenoxy)-2-hydroxypropyl]amino]-2-cyanophenyl]amino]oxoacetic acid ethyl ester]",63.8%,39.3%,2.64%,30 µM,–
"CCCc1c(OCC(O)CNc2cccc(NC(=O)C(=O)O)c2C#N)ccc(C(C)=O)c1O (centres unmarked) [Example 8, [[[3-[3-(4-Acetyl-3-hydroxy-2-propylphenoxy)-2-hydroxypropyl]amino]-2-cyanophenyl]amino]oxoacetic acid sodium salt]",63.5%,37.5%,28.4%,25 µM,–
"CCCc1c(OCC(O)CNc2cccc(N)c2C(N)=O)ccc(C(C)=O)c1O (centres unmarked) [Example 9, 2-[3-(4-Acetyl-3-hydroxy-2-propylphenoxy)-2-hydroxypropyl]amino-6-aminobenzamide]",40.7%,–,–,–,–
"CC(=O)c1ccc(OCC(O)COc2cccc([N+](=O)[O-])c2)cc1O (centres unmarked) [Example 10, 1-[2-Hydroxy-4-[2-hydroxy-3-(3-nitrophenoxy)propoxy]phenyl]ethanone]",–,–,–,–,"inhibition at 100 µM ([2]; 10^-4 M concentration, sensitized guinea pig trachea, read-out: percent inhibition in the Schultz-Dale reaction): 62%; EC50 ([2]; sensitized guinea pig trachea, read-out: EC50 in the Schultz-Dale reaction): 76 µM"
"CCCc1c(OCC(O)COc2ccc3c(=O)cc(C(=O)[O-])oc3c2CCC)ccc(C(C)=O)c1O.[Na+] (centres unmarked) [FPL 55712, sodium 7-[3-(4-acetyl-3-hydroxy-2-propylphenoxy)-2-hydroxypropoxy]-4-oxo-8-propyl-4H-1-benzopyran-2-carboxylate]",–,–,–,–,antagonism of SRS-A (SRS-A): specific antagonist of SRS-A
